Measured values published in US7291743B2, “Isoxazole derivatives and methods of treating nitric oxide mediated diseases” (Geneblue Corporation, priority 2005, dated 2007).

Legend:
[1] = test system: inducible nitric oxide synthase (iNOS) in rat astrocytes; details: cited from earlier work
[2] = test system: RAW264.7 cells (murine macrophage); experiment: Inhibition of nitric oxide production in vitro (nitrite by Griess reagent in LPS-stimulated macrophage cells); format: cell-based; details: Mus musculus, LPS 1 μg/mL, 24 hours, test solution 25-200 μM, nitrite by Griess reagent at 550 nm, Mean ± S.E. of 4-6 observations, read-out: IC50 (inhibition of LPS-induced NO production)
Experimental: • 1. Prepare the cell culture medium DMEM (Dulbecco's modified eagle medium) with 10% fetal calf serum and 10% penicillin-streptomycin. Grow RAW264.7 cells (murine macrophage) in the medium in an incubator at 37° C. under 5% CO2 and saturated water vapor. • 2. Dissolve each test compound in DMSO to make a stock solution. Prepare the test solutions by making suitable dilutions of each stock solution with DMEM. • 3. Add the LPS solution (final concentration=1 μg/mL) and the test solution (final concentration ranging from 25, 50, 100, and up to 200 μM) to individual cell cultures and place in the incubator for 24 hours. • 4. In vitro Nitrite quantification: The production of NO was determined by measuring the accumulated levels of nitrite in culture supernatants with the Griess reagent in LPS-stimulated macrophage cells. • (a) Withdraw 100 μL of the medium from each cell culture and place in a 96-well plate microplate. Add 100 μL of Griess reagent to the medium at room temperature and cover with aluminum foil for 10 minutes. • (b) Measure the absorption by a Dynatech ELISA reader at 550 nm. NaNO2 was used as the standard to calculate the nitrite concentration. • (c) Calculate the % inhibiiton by the following equation: […]
Wherein RM is the reading of medium only, RM+L is the reading of medium with LPS, RM+L+C is the reading of medium with LPS and test compound.

## Cc1oncc1C(=O)Nc1ccc(C(F)(F)F)cc1 [lefunomide, leflunomide]
[1]
  inhibition of activation of iNOS: inhibit activation of iNOS in rat astrocytes

## Cc1cc(C(=O)Oc2ccc(OC(=O)c3cc(C)on3)cc2)no1 [Compound 15c]
other
  melting point: 148 to 150 °C
[2]
  IC50: 7.6 ± 0.4 µM

## Cc1cc(C(=O)Nc2ccc(NC(=O)c3cc(C)on3)cc2)no1 [Compound 14c]
other
  melting point: 178 to 180 °C
[2]
  IC50: 0.6 ± 0.01 µM

## C/C(O)=C(\C#N)C(=O)Nc1ccc(C(F)(F)F)cc1 [Compound A771726, reference compound]
[2]
  IC50: 175 ± 4.7 µM
